Consider 14 molecules from patent US9266904B2, “6-bridged heteroaryldihydropyrimidines for the treatment and prophylaxis of hepatitis B virus infection” (priority 2013, dated 2016).

Data set [1] can be described thus: Cytotoxicity (CCK-8 cell viability) and selectivity index. In kind it is cell-based, human. The note with it: human, HepDE19 cells; cytotoxicity, concentration resulting in death of 50% of host cells. The text has this:
(§1) HepG2.2.15 and HepDE19 are stably-transfected cell lines containing the HBV genome. Both cell lines are derived from the hepatoblastoma cell line Hep G2 (American Type Culture Collection, ATCC® HB-8065™) by the published procedures described in references: M A Selles et al. Proc. Natl. Acad. Sci. USA 1987, 84, 1005-1009 and H Guo et al. Journal of Virology 2007, 81, 12472-12484, respectively. Both cell lines were maintained in Dulbecco's modified Eagle's medium (DMEM)-F12 medium supplemented with 10% fetal bovine serum, 100 U/mL penicillin, 100 μg/mL streptomycin, and 0.5 mg/mL of G418.
(§2) In a cell culture model, apparent antiviral activity of a compound can be the result of host cell death after exposure to the compound. To determine whether the anti-HBV effect of a test compound is due to cytotoxicity, HepDE19 cells were seeded into 96-well plates (5×10^3 cells per well) and treated with compounds as described above for EC50 determination. Five days after treatment, cell viability was measured by addition of 20 μL of CCK-8 reagent. Two hours after incubation at 37° C., the absorbance at wavelengths of 450 nm and 630 nm (OD450 and OD630) was recorded by a plate reader. The concentration results in the death of 50% of the host cells (CC50) of each compound was determined (See Table 5).

The test system of the next data set is HepDE19 cells. The data set is described as above. In kind it is cell-based, human. The note with it: for Selectivity index (CC50/EC50): CC50 value/EC50 value; for CC50: cytotoxicity, concentration resulting in death of 50% of host cells.
Excerpt: as §1, §2

The subject of data set [2] is HBV replication in HepG2.2.15 cells. Nature of the data set: Anti-HBV activity in vitro in HepG2.2.15 cells (extracellular HBV DNA by qPCR). The class given is cell-based. As to conditions: read-out: EC50. The essentials: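 EC50 is derived from qPCR of extracellular viral DNA in culture supernatant after 5-day compound exposure. Cells (HepG2.2.15, stably carrying the HBV genome) were plated and incubated overnight at 37 °C before half-log dilution series were added at 0.5% final DMSO.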
A general note: Real-time PCR tracks product formation cycle by cycle.

Data set [3] in a line: Human microsomal clearance assay. The class given is in vitro ADME. The method, boiled down: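 Liver microsomes (0.5 mg/mL protein) were incubated with 1 μM compound at 37 °C, pH 7.4 phosphate, with an NADPH-regenerating system. Samples at 0-30 min were quenched and measured by LC-MS/MS for parent loss. No-NADPH controls were included.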
Data set [4] is described as follows: Lyophilisation solubility assay (Lysa). In kind it is physicochemical. The method, boiled down: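 DMSO was evaporated from 10 mM stocks, and residues were taken up in 0.05 M phosphate buffer pH 6.5, stirred 1 h, shaken 2 h and left overnight. Filtrates were quantified by UV or HPLC-UV against a four-point calibration, in duplicate. Values are in μg/ml, with a lower-bound value when >80% dissolved.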

[5] abbreviates: Hepatitis B virus, HepG2.2.15, Anti-HBV activity in HepG2.2.15 cells.
The mark [6] stands for this setting: Anti-HBV activity in HepG2.2.15 cells.

The structures appear in SMILES notation. Converted amounts (≈) assume the structure as drawn. Read-outs that look alike come from different tables or passages of the source.

The term CC50 denotes the concentration that lowers cell viability or growth by half. Low readings indicate greater toxicity to the cells, high ones lower toxicity to the cells. What is called EC50 is the concentration at which the effect is half-maximal. Molecule `COC(=O)CC1CC2COCC(C1)N2CC1=C(C(=O)OC)[C@H](c2ccc(F)cc2Cl)N=C(c2nccs2)N1` (stereo partly drawn) [Example 25, (R)-4-(2-Chloro-4-fluoro-phenyl)-6-(7-methoxycarbonylmethyl-3-oxa-9-aza-bicyclo[3.3.1]non-9-ylmethyl)-2-thiazol-2-yl-1,4-dihydro-pyrimidine-5-carboxylic acid methyl ester] registered a CC50 at 5 days in data set [1] of more than 100 µM. Moreover, the “Selectivity index (CC50/EC50)” value in the data set with HepDE19 cells is on record as more than 6897. Further, the EC50 in data set [2] (setting [5]) amounted to 14.5 nM.
The corresponding values for `COC(=O)C1=C(CN2C3COCC2C(F)(F)c2[nH]ncc23)NC(c2nccs2)=N[C@H]1c1ccc(F)cc1Cl` (stereo partly drawn) [Example 107, (R)-4-(2-Chloro-4-fluoro-phenyl)-6-(7,7-difluoro-10-oxa-4,5,12-triaza-tricyclo[6.3.1.0*2,6*]dodeca-2(6),3-dien-12-ylmethyl)-2-thiazol-2-yl-1,4-dihydro-pyrimidine-5-arboxylic acid methyl ester] are 26 µM, 12495 and 2.1 nM.
The corresponding values for `COC(=O)C1=C(CN2C3CC(F)(F)C2C[C@H]3C(=O)O)NC(c2nccs2)=N[C@H]1c1ccc(F)cc1Cl` (stereo partly drawn) [Example 152, (5R)-7-[[(4R)-4-(2-chloro-4-fluoro-phenyl)-5-methoxycarbonyl-2-thiazol-2-yl-1,4-dihydropyrimidin-6-yl]methyl]-2,2-difluoro-7-azabicyclo[2.2.1]heptane-5-carboxylic acid] are more than 100 µM, more than 5650 and 17.7 nM.
For `COC(=O)C1=C(CN2C3COCC2C(F)(F)C3)NC(c2nccs2)=N[C@H]1c1ccc(F)cc1Cl` (stereo partly drawn) [Example 108, Methyl (4R)-4-(2-chloro-4-fluorophenyl)-6-[(6,6-difluoro-3-oxa-8-azabicyclo[3.2.1]octan-8-yl)methyl]-2-(1,3-thiazol-2-yl)-1,4-dihydropyrimidine-5-carboxylate], in that order: 74 µM, 9953 and 7.4 nM.
On to `COC(=O)C1=C(CN2C3COCC2c2[nH]ncc23)NC(c2nccs2)=N[C@H]1c1ccc(F)cc1Cl` (stereo partly drawn) [Example 45, (R)-4-(2-Chloro-4-fluoro-phenyl)-6-(9-oxa-3,4,11-triaza-tricyclo[5.3.1.0*2,6*]undeca-2(6),4-dien-11-ylmethyl)-2-thiazol-2-yl-1,4-dihydro-pyrimidine-5-carboxylic acid methyl ester], for which it took 43 µM to reach half-maximal cytotoxicity in data set [1] (CC50 at 5 days). The “Selectivity index (CC50/EC50)” value in the data set on HepDE19 cells turned out to be 85280. In addition, the EC50 in data set [2] (setting [5]) is 0.5 nM.
With `CCOC(=O)C1=C(CN2[C@@H]3COC[C@H]2C[C@@H](NC(C)=O)C3)NC(c2nccs2)=N[C@H]1c1ccc(F)cc1Br` [Example 70, Ethyl (4R)-6-[[(1S,5R)-7-endo-acetamido-3-oxa-9-azabicyclo[3.3.1]nonan-9-yl]methyl]-4-(2-bromo-4-fluoro-phenyl)-2-thiazol-2-yl-1,4-dihydropyrimidine-5-carboxylate], the CC50 at 5 days in data set [1] was 60 µM. In addition, the “Selectivity index (CC50/EC50)” value with HepDE19 cells is recorded as 7268. For the same molecule, the EC50 in data set [2] (setting [5]) stood at 8.2 nM.
With `COC(=O)C1=C(CN2[C@H]3COC[C@@H]2C(F)(F)[C@H](CC(=O)O)C3)NC(c2nccs2)=N[C@H]1c1ccc(F)c(F)c1Cl` (single isomer, unassigned) [Example 131, 2-[(1R,5R,7S)-9-[[(4R)-4-(2-chloro-3,4-difluoro-phenyl)-5-methoxycarbonyl-2-thiazol-2-yl-1,4-dihydropyrimidin-6-yl]methyl]-6,6-difluoro-3-oxa-9-azabicyclo[3.3.1]nonan-7-yl]acetic acid or 2-[(1S,5S,7R)-9-[[(4R)-4-(2-chloro-3,4-difluoro-phenyl)-5-methoxycarbonyl-2-thiazol-2-yl-1,4-dihydropyrimidin-6-yl]methyl]-6,6-difluoro-3-oxa-9-azabicyclo[3.3.1]nonan-7-yl]acetic acid], in data set [3] (human microsomal clearance), the CLh was found to be 0 mL/min/kg. This molecule also gave a Lysa in data set [4] (0.05 M phosphate buffer (pH 6.5), reported as bigger than the value if more than 80% of the sample is in solution) of 261 µg/mL. Further, in the data set on HepDE19 cells, it took 53 µM to reach half-maximal cytotoxicity (CC50). In addition, the EC50 in data set [2] (setting [6]) was found to be 5.7 nM.
Consider `CCOC(=O)C1=C(CN2[C@@H]3COC[C@H]2C[C@H](NC(C)=O)C3)NC(c2nccs2)=N[C@H]1c1ccc(F)cc1Br` [Example 71, Ethyl (4R)-6-[[(1S,5R)-7-exo-acetamido-3-oxa-9-azabicyclo[3.3.1]nonan-9-yl]methyl]-4-(2-bromo-4-fluoro-phenyl)-2-thiazol-2-yl-1,4-dihydropyrimidine-5-carboxylate], for which the CC50 at 5 days in data set [1] stood at 44 µM. In addition, in the data set with HepDE19 cells, the “Selectivity index (CC50/EC50)” value was determined as 14690. In addition, in data set [2] (setting [5]), the EC50 came to 3 nM.
For `COC(=O)C1=C(CN2C3COCC2CC(O)C3)NC(c2nccs2)=N[C@H]1c1ccc(F)cc1Cl` (stereo partly drawn) [Example 7, (R)-4-(2-Chloro-4-fluoro-phenyl)-6-(7-hydroxy-3-oxa-9-aza-bicyclo[3.3.1]non-9-ylmethyl)-2-thiazol-2-yl-1,4-dihydro-pyrimidine-5-carboxylic acid methyl ester], in that order: more than 100 µM, more than 8333 and 12 nM.
The corresponding values for `COC(=O)C1=C(CN2C3COCC2c2conc2C3)NC(c2nccs2)=N[C@H]1c1ccc(F)cc1Cl` (stereo partly drawn) [Example 104, (4R)-4-(2-Chloro-4-fluoro-phenyl)-6-(4,10-dioxa-5,12-diaza-tricyclo[6.3.1.0*2,6*]dodeca-2,5-dien-12-ylmethyl)-2-thiazol-2-yl-1,4-dihydro-pyrimidine-5-carboxylic acid methyl ester] are 44 µM, 9079 and 4.8 nM.
Molecule `CCOC(=O)CC1(NS(C)(=O)=O)CC2COCC(C1)N2CC1=C(C(=O)OC)[C@H](c2ccc(F)cc2Cl)N=C(c2nccs2)N1` (stereo partly drawn) [Example 146, Methyl (4R)-4-(2-chloro-4-fluoro-phenyl)-6-[[7-(2-ethoxy-2-oxo-ethyl)-7-(methanesulfonamido)-3-oxa-9-azabicyclo[3.3.1]nonan-9-yl]methyl]-2-thiazol-2-yl-1,4-dihydropyrimidine-5-carboxylate] displayed a CC50 at 5 days in data set [1] of more than 100 µM. Also, the “Selectivity index (CC50/EC50)” value in the data set on HepDE19 cells is given as more than 200000. In addition, in data set [2] (setting [5]), the EC50 came out at 0.5 nM.
The corresponding values for `COC(=O)C1=C(CN2C3COCC2CN(C(=O)OC)C3)NC(c2nccs2)=N[C@H]1c1ccc(F)cc1Cl` [Example 17, 9-[(R)-6-(2-Chloro-4-fluoro-phenyl)-5-methoxycarbonyl-2-thiazol-2-yl-3,6-dihydro-pyrimidin-4-ylmethyl]-3-oxa-7,9-diaza-bicyclo[3.3.1]nonane-7-carboxylic acid methyl ester] are 50 µM, 11628 and 4 nM.
Take `COC(=O)C1=C(CN2[C@@H]3C[C@@H](CC(=O)O)C[C@H]2C(F)(F)C3)NC(c2nccs2)=N[C@H]1c1ccc(Cl)c(F)c1` (single isomer, unassigned) [Example 113, 2-[(1R,3R,5S)-8-[[(4S)-4-(4-chloro-3-fluoro-phenyl)-5-methoxycarbonyl-2-thiazol-2-yl-1,4-dihydropyrimidin-6-yl]methyl]-6,6-difluoro-8-azabicyclo[3.2.1]octan-3-yl]acetic acid or 2-[(1S,3S,5R)-8-[[(4S)-4-(4-chloro-3-fluoro-phenyl)-5-methoxycarbonyl-2-thiazol-2-yl-1,4-dihydropyrimidin-6-yl]methyl]-6,6-difluoro-8-azabicyclo[3.2.1]octan-3-yl]acetic acid]: the CLh in data set [3] (human microsomal clearance) worked out at 6.2 mL/min/kg. Moreover, the CC50 in the data set with HepDE19 cells came to 58 µM. In addition, the EC50 in data set [2] (setting [6]) was 9.1 nM.
Usually thermodynamic solubility stands for the concentration in solution at equilibrium with solid. In data set [3] (human, 1 μM, pH 7.4), `CCOC(=O)C1=C(CN2[C@@H]3COC[C@H]2[C@H](F)[C@@H](CC(=O)O)C3)NC(c2nccs2)=N[C@H]1c1ccccc1Cl` [Example 102, 2-[(1S,5S,6R,7R)-9-[[(4R)-4-(2-chlorophenyl)-5-ethoxycarbonyl-2-thiazol-2-yl-1,4-dihydropyrimidin-6-yl]methyl]-6-fluoro-3-oxa-9-azabicyclo[3.3.1]nonan-7-yl]acetic acid] gave a CLh of 3.0 mL/min/kg. Moreover, the solubility (thermodynamic) in data set [4] (pH 6.5, aqueous buffer, thermodynamic from solid) was determined as 410 µg/mL (≈ 728 µM). Further, in data set [2] (setting [5]), the EC50 is 66 nM.
